Values joined by “and” are separate entries in the source; they are usually repeats but may differ in a detail not shown here. Equal values may be shown once. No end group written: not given here.
Key:
[1] = system: neonatal rat CMs (heart cells); test: Preliminary 3D cell encapsulation studies in hydrogels; assay type: cell-based, rat (Sprague-Dawley); details: encapsulated, 1 to 4 days of 3D culture
Experimental: The lyophilized form of the peptide-modified Az-chitosan was dissolved in sterile 0.9% saline at 12 mg/mL. CMs (2.5×10^6) were suspended in 15 μL of CM culture media with 30% serum for 15 minutes on ice. These cells were then suspended in 35 μL of the hydrogel and crosslinked in the transwell inserts of the 96 well plates. The cells were cultivated in the CM culture medium with 10% FBS for up to 4 days.

human iPS cells = test: iPS cell colony number following passage; assay type: cell-based; details: vs PBS control, FIG. 11
Experimental: (§1) The human iPS cells (BJ1D and 0901B) were obtained from the Ontario iPSC Facility and used following the hiPS cell research guidelines of the University of Toronto as described by Hotta et al. Nat. Protoc. 4, 1828-1844 (2009)), unless specified otherwise. Cells were cultured on a feeder layer of MEF cells (Mount Sinai Hospital Toronto, inactivated with 10 μg/ml mitomycin C and seeded at 1.8×10^5 per 3.5 cm dish). For single cell cultures, hiPS cell colonies were dissociated in 0.25% Trypsin-EDTA (Invitrogen) for 5 min, followed by trituration with a pipette. To ensure a single-cell suspension, the dissociated cells were passed through a 40 μm cell strainer (BD Falcon) and seeded onto MEF plates at 10 cells/ml, 10 cm plates. Cells were allowed to grow for 7 days and the total number of colonies was counted. In the treated groups, QHREDGS (Biomatik) or DGQESHR (Biomatik) dissolved in PBS (Lonza), were added at the reported concentrations to culture media at the onset of the first treatment passage and replenished with each media change. Media was changed by 100% every day. Peptides and controls were included during dissociation and passaging. Cells were analyzed after 5 passages in continuous treatment with 50 μM QHREDGS, 50 μM DGQESHR, or PBS, unless specified otherwise.
To determine the optimal concentration of QHREDGS for iPSC expansion, a dose-response experiment was performed. Cells were treated with 5 μM, 50 μM, or 500 μM of QHREDGS peptide, or 500 μM scrambled peptide (DGQESHR) in PBS with a PBS treated control for five passages and stained for CFDA-Live/PI-Dead. Live cells were counted using the cell counter plug in for ImageJ.

human iPS cells 0901B [2] = test: iPS colony formation / cloning efficiency after complete dissociation at clonal density; assay type: cell-based
Experimental: as §1
(§2) iPS cells, BJ1D or 0901B were treated with 50 μM of QHREDGS peptide, or 50 μM DGQESHR scrambled peptide in PBS with a PBS treated control for five passages as a preparation for passage by trypsin. Cells were trypsinized and plated at a clonal density of 10 cells/ml for one week and the number of colonies were counted.
(§3) After 5 passages in pre-treatment with 50 μM QHREDGS, or controls and complete dissociation (trypsinized), human iPS cells, BJ1D or 0901B cells, were plated on a mouse embryonic fibroblast (MEF) feeder layer at low density (100 cells/plate, 10 cm plate) in maintenance medium containing 50 μM QHREDGS, PBS, or 50 μM DGQESHR scrambled peptide. After one-week in culture, untreated or DGQESHR (scrambled peptide) treated groups generated few colonies, whereas QHREDGS treated groups for both BJ1D or 0901B cells produced many large colonies (˜15 times more than the controls) (see FIG. 13A/B, respectively). The colonies were positive for Oct4, a marker for the undifferentiated state. The cloning efficiency, based on ratio of Oct4+ colonies formed per initially seeded human iPS cells, was 27+/−7.1% and 2.5+/−0.6% for BJ1D and 48+/−9.4% and 22.3+/−1.9 for 0901B in the presence and absence of QHREDGS, respectively. […] Thus, treatment with QHREDGS supports single-cell culture of human iPS cells through the promotion of colony formation.

human iPS cells BJ1D [3] = test: as above; assay type: cell-based
Experimental: as §1, §2, §3

human iPS cells 0901B [4] = test: Pluripotency markers Oct4 and SSEA4 by FACS; assay type: cell-based; details: 50 μM, five passages, FIG. 15
Experimental: (§4) Analytical flow cytometry was performed on a FACSCalibur flow cytometer (BD Biosciences) as described in Chiang et al. Acta Biomater. 6, 1904-1916 (2010), with an additional permeabilization step with 0.25% Triton-X (Sigma) for 10 min at 4° C. Oct4 (Millipore), SSEA-4 (Developmental Studies Hybridoma Bank) and Ki67 (Millipore) and all secondary antibodies (Jackson ImmunoResearch) were used at 1:100.

human iPS cells BJ1D [5] = test: Pluripotency markers Oct4 and SSEA4 by FACS; assay type: cell-based; details: 50 μM, five passages, FIG. 14
Experimental: as §4

[6] = system: Human ESC-derived cardiac cells (Hes2); test: Total cell number of monolayer human ESC-derived cardiac cells; assay type: cell-based; details: 50 μM, 10 days, vs PBS control and DGQESHR
Experimental: (§5) Human ESC-derived cardiac cell culture, were derived from Day 20 EBs, consisting of greater than 50% cardiomyocytes obtained by directed differentiation of human ES (Hes2) cells as described by Yang et al. (Nature 453, 524-528 (2008)). EBs were dissociated using Collagenase I (Invitrogen) for 2 hrs and 0.05% Trypsin-EDTA (Invitrogen) for 5 min and plated at 40000 cells/cm^2 onto 0.2% gelatin-coated plates in Stempro 34 medium supplemented with VEGF (10 ng/ml) and DKK1 (150 ng/ml). Cells were cultured in the presence of 50 μM QHREDGS, 50 μM DGQESHR (Biomatik) or PBS until they formed a beating monolayer, around 10 days. Peptides were replenished during media changes every 3 days. 100 μM H2O2 (Sigma, dissolved in PBS) was added to culture media for 10 min, washed, and analyzed immediately for CFDA-Live/PI-Dead. Live cells were counted using the cell counter plug in for ImageJ. 0.5 μM or 2.5 μM taxol (Sigma, dissolved in DMSO) was added to culture media for 24 hrs, and the extent of apoptosis was analyzed immediately using the Apo-ONE Homogeneous Caspase Assay (Promega), or TUNEL assay (Roche) as described above. A PBS control was used for H2O2 and DMSO control was used for taxol.

[7] = system: Human ESC-derived cardiac cells (Hes2); test: H2O2 exposure, CFDA-Live/PI-Dead of human ESC-derived cardiac cells; assay type: cell-based; details: 50 μM, 100 μM H2O2 10 min, FIG. 19
Experimental: as §5

[8] = system: Human ESC-derived cardiac cells (Hes2); test: Caspase 3/7 assay of human ESC-derived cardiac cells; assay type: cell-based; details: 50 μM, FIG. 20
Experimental: as §5

[9] = system: Human ESC-derived cardiac cells (Hes2); test: TUNEL assay with cTnT co-localization of human ESC-derived cardiac cells; assay type: cell-based; details: 50 μM, FIG. 21
Experimental: as §5

[10] = 50 μM, 100 cells/plate on MEF, one week
[11] = in the presence of 50 μM QHREDGS

In the case of “Az-chitosan-QHREDGS: QHREDGS peptide covalently conjugated to Az-chitosan by EDC chemistry (also: covalently conjugated to Az-chitosan by EDC chemistry, site not given here)”, the “heart cell survival and elongation in 3D hydrogel” value [1] is reported as “heart cell elongation”.

With QHREDGS (angiopoietin 1 peptide) the “increase in colony number” value (human iPS cells; 50 μM) was 14.3%, the “increase in colony number” value (human iPS cells; 50 μM, on average) was “greater than 10 colonies/well” and the “increase in colony number” value (human iPS cells; 500 μM) was 40%. For the same substance, the “colonies relative to controls” value (human iPS cells 0901B [2]; [10]) was ~15 times more than the controls, the number of colonies (human iPS cells 0901B [2]; 50 μM, trypsinized, clonal density, one week, FIG. 13B) was “increased significantly” and the “cloning efficiency (Oct4+ colonies per initially seeded cells)” value (human iPS cells 0901B [2]; [11]) was 48+/−9.4% and 48%. For the same substance, the “colonies relative to controls” value (human iPS cells BJ1D [3]; [10]) was ~15 times more than the controls, the number of colonies (human iPS cells BJ1D [3]; 50 μM, trypsinized, clonal density, one week, FIG. 13A) was “increased significantly” and the “cloning efficiency (Oct4+ colonies per initially seeded cells)” value (human iPS cells BJ1D [3]; [11]) was 27+/−7.1% and 27%. The “expression of Oct4 and SSEA4 (FACS)” value (human iPS cells 0901B [4]) was “comparable to both PBS and DGQESHR scrambled peptide controls”, the “expression of Oct4 and SSEA4 (FACS)” value (human iPS cells BJ1D [5]) was “comparable to both PBS and DGQESHR scrambled peptide controls” and the “increase in number of cardiac cells/well” value [6] was “greater than 2 fold”. For the same substance, the “viability of cardiac cells (% Live-CFDA/Dead-PI)” value [7] was “enhanced viability”, the “reduction of basal apoptosis levels in cardiac cells (Caspase 3/7)” value [8] was 2 fold and the “reduction of basal apoptosis in cardiomyocytes (TUNEL/cTnT)” value [9] was “greater than 10 fold”.

— patent US9096643B2, “Cell-protective peptides and uses thereof” (priority 2010, dated 2015)
